Source: US20210198259A1, “HETEROCYCLIC DERIVATIVES AND USE THEREOF” (C&C RESEARCH LABORATORIES, priority 2018, published 2021)
Where a name gives a salt, the structure may show the parent alone.

Legend:
[1] = Test for pharmacokinetics in ICR mice (oral); format: in vivo; details: 50 mg/kg, ICR mouse, 5 mg/mL solution at 10 mL/kg, plasma
Method: As the administration solution for mice of the compounds prepared in the above
Examples, the compound of Example 55 of International Publication No. WO 2010/030785 and the compound of Example 4 of International Publication No. WO 2013/048214, 20% hydroxypropyl-β-cyclodextrin solution (99.75%) and 2N HCl (0.25%) were added sequentially to make 5 mg/mL. Provided that in the case of the compound of Example 10, 99.5% of 20% hydroxypropyl-β-cyclodextrin solution and 0.5% of 2N HCl […] were added.
The weight of each ICR mouse was properly 20-30 g. Dosage of the compound of the present invention was 10 mL/kg, and administered orally using Zonde. Blood collection was performed at 0.5, 1, 2, 4, 7 and 24 hours by orbital venous blood collection using a capillary tube coated with an anticoagulant, and then plasma was isolated using a centrifuge and kept in a freezer.
Plasma collected from animals and standard concentration material were pre-treated using solid-phase extraction, and concentration of the compound of the invention was determined using a liquid chromatography mass spectrometer (Agilent HPLC, API-4000 Qtrap). According to the resulting concentration value, the pharmacokinetics parameter was found using WinNonlin (Version 7.0) and half-life (t1/2), maximum blood concentration (Cmax) and area under the curve (AUCall) are represented in Table 2.

[2] = target: T1, human histamine 4 receptor (hH4R) (Homo sapiens, UniProt Q9H3N8); test: Binding affinity of human histamine 4 receptor (hH4R), [3H] histamine displacement; details: [3H] labeled histamine, hH4R-overexpressed cell membrane
T1 construct: purchased Multispan
T1 sequence (Q9H3N8 whole entry): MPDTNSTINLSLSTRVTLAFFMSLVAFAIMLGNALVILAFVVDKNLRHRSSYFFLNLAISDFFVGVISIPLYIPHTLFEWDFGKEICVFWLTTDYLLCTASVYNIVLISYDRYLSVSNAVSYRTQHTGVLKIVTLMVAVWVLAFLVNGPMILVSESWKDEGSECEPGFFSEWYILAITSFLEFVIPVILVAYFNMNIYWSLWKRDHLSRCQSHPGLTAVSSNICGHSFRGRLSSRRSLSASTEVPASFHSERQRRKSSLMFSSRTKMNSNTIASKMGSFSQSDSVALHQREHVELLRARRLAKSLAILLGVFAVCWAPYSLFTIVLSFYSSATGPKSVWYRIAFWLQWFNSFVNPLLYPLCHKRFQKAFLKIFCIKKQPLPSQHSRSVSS
Method: The compounds prepared in the above Examples, the compound of Example 55 of International Publication No. WO 2010/030785 and the compound of Example 4 of International Publication No. WO 2013/048214 were diluted by 1,000 fold (v/w) with DMSO, and then 1 mL of the diluted compound solution was mixed with 99 mL of the analysis buffer solution (50 mM tris-HCl pH 7.4, 5 mM EDTA) to obtain concentration of 1 μM. […] of the prepared compound solution was transferred to each well of a 96-well plate, and then 20 mL of 100 μM histamine diluted with analysis buffer solution and 1% DMSO were transferred to each well to calculate non-specific binding and total binding degree. 15 μg of human histamine 4 receptor-overexpressed cell membrane (Multispan) was diluted into […] of analysis buffer solution and that was transferred to each well. [^3H] labeled histamine (PerkinElmer) was diluted into 10 nM concentration, 20 mL was allocated in each well, and then it was kept in a 27° C. incubator for 30 minutes. After the reaction, 100 mL of the mixture was transferred to a glass fiber plate in which 0.5% polyethylene amine was pre-soaked, and then non-binding [^3H] labeled histamine was removed in vacuum. After 6 times washing with 200 mL of washing buffer solution (50 mM tris-HCl, pH 7.4), the plate was dried in a 37° C. oven for 18 hours. […] of betaScint cocktail solution was added to each well, and after 10 minutes CPM (count per minute) value of [^3H] labeled histamine was measured by the use of Micro beta2™. The binding affinity (% inhibition) of the human histamine 4 receptor for the compounds of the present invention was analyzed by an Excel program, and the results of analysis are represented in Table 1.

Compound: CN1CCN(C2=Nc3ncc(Br)cc3N3CC(=O)N=C23)CC1 [Example 1, 8-bromo-4-(4-methylpiperazin-1-yl)imidazo[1,2-a]pyrido[2,3-e]pyrazin-2(1H)-one]
- AUC [1]: 8650 ng·h/mL
- Cmax [1]: 2280 ng/mL
- half-life [1]: 3.81 h
- inhibition at 1 µM [2]: 79.7%

Compound: CNC1CN(C2=Nc3ncc(Br)cc3N3CC(=O)N=C23)C1 [Example 2, 8-bromo-4-(3-(methylamino)azetidin-1-yl)imidazo[1,2-a]pyrido[2,3-e]pyrazin-2(1H)-one]
- inhibition at 1 µM [2]: 39.5%

Compound: CN[C@@H]1CCN(C2=Nc3ncc(Br)cc3N3CC(=O)N=C23)C1 [Example 3, (R)-8-bromo-4-(3-(methylamino)pyrrolidin-1-yl)imidazo[1,2-a]pyrido[2,3-e]pyrazin-2(1H)-one]
- inhibition at 1 µM [2]: 9.8%

Compound: CN[C@H]1CCN(C2=Nc3ncc(Br)cc3N3CC(=O)N=C23)C1 [Example 4, (S)-8-bromo-4-(3-(methylamino)pyrrolidin-1-yl)imidazo[1.2-a]pyrido[2.3-e]pyrazin-2(1H)-one]
- inhibition at 1 µM [2]: -4.38%

Compound: O=C1CN2C(=N1)C(N1CCN3CCCC3C1)=Nc1ncc(Br)cc12 (stereo not shown) [Example 5, 8-bromo-4-(hexahydropyrrolo[1,2-a]pyrazin-2(1H)-yl)imidazo[1,2-a]pyrido[2,3-e]pyrazin-2(1H)-one]
- inhibition at 1 µM [2]: 55.9%

Compound: CN1CCN(c2nc3ncc(Br)cc3n3c(=O)[nH]nc23)CC1 [Example 6, 8-bromo-4-(4-methylpiperazin-1-yl)pyrido[2,3-e][1,2,4] triazolo[4,3-a]pyrazin-1(2H)-one]
- inhibition at 1 µM [2]: 42.6%

Compound: CN1CCN(c2nc3ncc(Br)cc3n3[nH]c(=O)nc23)CC1 [Example 7, 8-bromo-4-(4-methylpiperazin-1-yl)pyrido[2,3-e][1,2,4] triazolo[1,5-a]pyrazin-2(1H)-one]
- inhibition at 1 µM [2]: -1.12%

Compound: CN1CCN(C2=Nc3nc(Cl)c(Br)cc3N3CC(=O)N=C23)CC1 [Example 8, 8-bromo-7-chloro-4-(4-methylpiperazin-1-yl)imidazo[1,2-a]pyrido[2,3-e]pyrazin-2(1H)-one]
- inhibition at 1 µM [2]: 88.9%

Compound: CN1CCN(C2=Nc3nc(F)c(Br)cc3N3CC(=O)N=C23)CC1 [Example 9, 8-bromo-7-fluoro-4-(4-methylpiperazin-1-yl)imidazo[1.2-a]pyrido[2,3-e]pyrazin-2(1H)-one]
- inhibition at 1 µM [2]: 94.4%

Compound: CN1CCN(C2=Nc3ccc([N+](=O)[O-])cc3N3CC(=O)N=C23)CC1 [Example 10, 4-(4-methylpiperazin-1-yl)-8-nitroimidazo[1,2-a]quinoxalin-2(1H)-one]
- AUC [1]: 920 ng·h/mL
- Cmax [1]: 360 ng/mL
- half-life [1]: 2.04 h
- inhibition at 1 µM [2]: 98.1%

Compound: CN1CCN(C2=Nc3ccc(N)cc3N3CC(=O)N=C23)CC1 [Example 11, 8-amino-4-(4-methylpiperazin-1-yl)imidazo[1,2-a]quinoxalin-2(1H)-one]
- inhibition at 1 µM [2]: 44.8%

Compound: CN1CCN(C2=Nc3ccc(Br)cc3N3CC(=O)N=C23)CC1 [Example 12, 8-bromo-4-(4-methylpiperazin-1-yl)imidazo[1,2-a]quinoxalin-2(1H)-one]
- AUC [1]: 1390 ng·h/mL
- Cmax [1]: 570 ng/mL
- half-life [1]: 1.73 h
- inhibition at 1 µM [2]: 101%

Compound: CN1CCN(C2=Nc3ccc(Br)cc3N3CC(=O)NN=C23)CC1 [Example 14, 9-bromo-5-(4-methylpiperazin-1-yl)-1H -[1,2,4]triazino[43-a]quinoxalin-2(3H)-one]
- inhibition at 1 µM [2]: 52.6%

Compound: CN1CCN(C2=Nc3ccc(Br)c(Br)c3N3CC(=O)N=C23)CC1 [Example 15, 8,9-dibromo-4-(4-methylpiperazin-1-yl)imidazo[1,2-a]quinoxalin-2(1H)-one]
- inhibition at 1 µM [2]: 99.2%

Compound: CNC1CN(C2=Nc3ccc(NS(C)(=O)=O)cc3N3CC(=O)N=C23)C1 [Example 16, N-(4-(3-(methylamino)azetidin-1-yl)-2-oxo-1,2-dihydroimidazo[1,2-a]quinoxalin-8-yl)methanesulfonamide]
- inhibition at 1 µM [2]: -5.98%

Compound: CN1CCN(C2=Nc3ncc(Cl)cc3N3CC(=O)N=C23)CC1 [Example 17, 8-chloro-4-(4-methylpiperazin-1-yl)imidazo[1,2-a]pyrido[2,3-e]pyrazin-2(1H)-one]
- inhibition at 1 µM [2]: 87.1%

Compound: CNC1CN(C2=Nc3ccc(N)cc3N3CC(=O)N=C23)C1 [Example 18, 8-amino-4-(3-(methylamino)azetidin-1-yl)imidazo[1,2-a]quinoxalin-2(1H)-one]
- inhibition at 1 µM [2]: 34.1%

Compound: CNC1CN(C2=Nc3ccc(Cl)cc3N3CC(=O)N=C23)C1 [Example 19, 8-chloro-4-(3-(methylamino)azetidin-1-yl)imidazo[1,2-a]quinoxalin-2(1H)-one]
- inhibition at 1 µM [2]: 96%

Compound: CNC1CN(C2=Nc3ncc(Cl)cc3N3CC(=O)N=C23)C1 [Example 20, 8-chloro-4-(3-(methylamino)azetidin-1-yl)imidazo[1,2-a]pyrido[2,3-e]pyrazin-2(1H)-one]
- inhibition at 1 µM [2]: 20.5%

Compound: CNC1CN(C2=Nc3ccc(Br)cc3N3CC(=O)N=C23)C1 [Example 21, 8-bromo-4-(3-(methylamino)azetidin-1-yl)imidazo[1,2-a]quinoxalin-2(1H)-one hydrochloride]
- inhibition at 1 µM [2]: 95.9%

Compound: CN1CCN(C2=Nc3cc(Cl)ncc3N3CC(=O)N=C23)CC1 [Example 22, 3-chloro-6-(4-methylpiperazin-1-yl)imidazo[1,2-a]pyrido[4,3-e]pyrazin-8(9H)-one]
- inhibition at 1 µM [2]: 86.3%

Compound: CNC1CN(C2=Nc3cnc(Cl)cc3N3CC(=O)N=C23)C1 [Example 23, 8-chloro-4-(3-(methylamino)azetidin-1-yl)imidazo[1.2-a]pyrido[3.4-e]pyrazin-2(1H)-one hydrochloride]
- inhibition at 1 µM [2]: 89.4%

Compound: CNC1CN(C2=Nc3cnc(Cl)cc3N3CC(=O)N=C23)C1 [Example 24, 8-chloro-4-(3-(methylamino)azetidin-1-yl)imidazo[1,2-a]pyrido[3,4-e]pyrazin-2(1H)-one]
- Human histamine 4 receptor (hH4R) binding affinity (% inhibition at 1 μM) [2]: 91.9%

Compound: CN1CCN(C2=Nc3cnc(Br)cc3N3CC(=O)N=C23)CC1 [Example 25, 8-bromo-4-(4-methylpiperazin-1-yl)imidazo[1,2-a]pyrido[3,4-e]pyrazin-2(1H)-one]
- inhibition at 1 µM [2]: 96.9%

Compound: CNC1CN(C2=Nc3cnc(Br)cc3N3CC(=O)N=C23)C1 [Example 26, 8-bromo-4-(3-(methylamino)azetidin-1-yl)imidazo[1,2-a]pyrido[3,4-e]pyrazin-2(1H)-one]
- inhibition at 1 µM [2]: 93.4%

Compound: CN1CCN(C2=Nc3ncc(Br)cc3N3CS(=O)(=O)N=C23)CC1 [Example 27, 8-bromo-4-(4-methylpiperazin-1-yl)-1H-pyrido[2,3-e][1,2,4]thiadiazolo[4,3-a]pyrazin 2,2-dioxide]
- inhibition at 1 µM [2]: 22.6%

Compound: CN1CCN(C2=Nc3cnc(Cl)cc3N3CC(=O)N=C23)CC1 [Example 28, 8-chloro-4-(4-methylpiperazin-1-yl)imidazo[1,2-a]pyrido[3,4-e]pyrazin-2(1H)-one hydrochloride]
- inhibition at 1 µM [2]: 96.8%

Compound: CN1CCN(C2=Nc3ccc(Cl)nc3N3CC(=O)N=C23)CC1 [Example 29, 2-chloro-6-(4-methylpiperazin-1-yl)imidazo[1,2-a]pyrido[3,2-e]pyrazin-8(9H)-one]
- inhibition at 1 µM [2]: 97.3%

Compound: CN1CCN(C2=Nc3ccc(Br)nc3N3CC(=O)N=C23)CC1 [Example 30, 2-bromo-6-(4-methylpiperazin-1-yl)imidazo[1,2-a]pyrido[3,2-e]pyrazin-8(9H)-one]
- inhibition at 1 µM [2]: 93.2%

Compound: CNC1CN(C2=Nc3ccc(Cl)nc3N3CC(=O)N=C23)C1 [Example 31, 2-chloro-6-(3-(methylamino)azetidin-1-yl)imidazo[1,2-a]pyrido[3,2-e]pyrazin-8(9H)-one]
- inhibition at 1 µM [2]: 97.7%

Compound: CNC1CN(C2=Nc3ccc(Br)nc3N3CC(=O)N=C23)C1 [Example 32, 2-bromo-6-(3-(methylamino)azetidin-1-yl)imidazo[1,2-a]pyrido[3,2-e]pyrazin-8(9H)-one]
- inhibition at 1 µM [2]: 97.4%
